Results as given in US5424292A (Depha Team s.r.l., priority 1990, dated 1995).

Tests used:
[1] = male Fischer rats, doses equivalent to 60 mg/kg of 5-ASA via metal probe into stomach; for Recovery percentages of 5-ASA + N-acetyl-5-ASA in feces by HPLC: feces withdrawn at 2 hour intervals for 48 hours; for Recovery percentages of 5-ASA + N-acetyl-5-ASA in urine by HPLC: urine withdrawn at 2 hour intervals for 48 hours
Procedure: Particularly, male Fischer rats weighing about 200-250 g were used.
The rats were then placed in metabolic cages, from which feces and urine were withdrawn at 2 hour intervals for 48 hours.

[2] = cited from earlier work

| SMILES | Recovery percentages of 5-ASA + N-acetyl-5-ASA in feces by HPLC [1] [%] | Recovery percentages of 5-ASA + N-acetyl-5-ASA in urine by HPLC [1] [%] | Stability at the gastric pH [2] |
| --- | --- | --- | --- |
| N[C@@H](CCC(=O)O)C(=O)Nc1ccc(O)c(C(=O)O)c1 [Compound 2, (N-L-glutamyl)-amino-2-salicylic acid] | 45 ± 4 | 34 ± 4 |  |
| Nc1ccc(O)c(C(=O)O)c1 [Compound 5-ASA, 5-aminosalicylic acid] | 05 ± 3 | 79 ± 3 | not stable at the gastric pH |
